ChEMBL document CHEMBL1142782, “Inhibition of tumor cell proliferation by thieno[2,3-d]pyrimidin-4(1H)-one-based analogs” (Bioorg Med Chem Lett, 2005)
pIC50: −log10 of the molar value.

Legend:
HT-29 = assay: Inhibitory concentration against human colon tumor cell line HT-29; type: functional, cell-based
[1] = molecular target: Cyclin-dependent kinase inhibitor 1 (Homo sapiens) (UniProt P38936); assay: Selectivity ratio between p21(-/-) and p21(+/+) isogenic cell lines; type: functional
SW-620 = assay: Inhibitory concentration against human colon tumor cell line SW620; type: functional, cell-based
DLD-1 = assay: Inhibitory concentration against human colon tumor cell line DLD1; type: functional, cell-based
LoVo = assay: Inhibitory concentration against human colon tumor cell line LoVo; type: functional, cell-based

Sequence of Cyclin-dependent kinase inhibitor 1 (Homo sapiens) (P38936 whole entry): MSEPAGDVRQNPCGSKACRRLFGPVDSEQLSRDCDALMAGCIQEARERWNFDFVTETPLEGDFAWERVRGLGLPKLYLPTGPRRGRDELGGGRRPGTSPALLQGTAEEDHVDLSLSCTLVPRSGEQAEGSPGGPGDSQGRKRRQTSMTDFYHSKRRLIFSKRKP

| Structure (SMILES) | pIC50 (HT-29) | Ratio [1] | pIC50 (SW-620) | pIC50 (DLD-1) | pIC50 (LoVo) |
| --- | --- | --- | --- | --- | --- |
| CCOc1ccc(-c2nc(O)c3c4c(sc3n2)CCCC4)cc1 | 5.30 | > 2.4 | 5.30 | 5.34 | 5.59 |
| O=C(c1cccs1)c1cnn2c(-c3cccc(NC(=O)C4CC4)c3)ccnc12 |  | 30 |  |  |  |
| COc1cc(-c2nc(O)c3c4c(sc3n2)CCCCC4)cc(OC)c1OC | 6.35 | 8.7 | 6.66 | 6.46 | 6.77 |
| CSc1ccc(-c2nc(O)c3c4c(sc3n2)CCCC4)cc1 | 6.00 | > 4.9 | 6.10 | 6.05 | 6.37 |
| COc1ccc(-c2nc(O)c3c4c(sc3n2)CCC4)cc1 | 6.48 | 8.3 | 6.64 | 6.54 | 6.82 |
| COc1ccc(-c2nc(O)c3c4c(sc3n2)CCCC4)c(F)c1 | 6.38 | 19 | 6.38 | 6.66 | 6.34 |
| COc1ccc(-c2nc(O)c3c4c(sc3n2)CCCC4)cc1 | 6.48 | > 8.5 | 6.64 | 6.54 | 6.82 |
| COc1cc(-c2nc(O)c3c4c(sc3n2)CCCC4)cc(OC)c1OC | 6.62 | > 8.7 | 6.72 | 6.55 | 6.85 |
| COc1cc(-c2nc(O)c3c4c(sc3n2)CCC4)cc(OC)c1OC | 6.52 | > 5.8 | 6.72 | 6.59 | 6.89 |
